According to patent US8003659B2, “Macrocyclic serine protease inhibitors” (Indenix Pharmaceuticals, Inc., priority 2008, dated 2011):

How the values were obtained:
[1] = from C=CCCCCN(C)C(=O)[C@@H]1C[C@H](Oc2cc(-c3nc(C(C)C)cs3)nc3c(Cl)c(OC)ccc23)CN1C(=O)N[C@]1(C(=O)NS(=O)(=O)C2CC2)C[C@H]1C=C; rcm bond; 14-membered ring; Zhan 1B (2%); DCE; 5.0 mM; 75.0 °C; 0.75 h
[2] = tested on: Huh-7 cells containing HCV Con1 subgenomic replicon (GS4.1 cells); experiment: HCV Replicon Assay (NS4A ELISA); type: cell-based; conditions: Hepatitis C virus, Huh-7, 72 hr, NS4A protein by ELISA
Summary of the method: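 GS4.1 cells (Huh-7 with HCV Con1 subgenomic replicon) given ten 2-fold compound dilutions (top 75 μM) or a single 15 μM dose in 0.5% DMSO for 72 h at 37 °C. NS4A measured by cell ELISA (A492); EC50 from four-parameter sigmoidal fit, single-dose results as % inhibition at 15 μM.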

[3] = Cytotoxicity evaluation (Cell Titer 96 AQueous One Solution Cell Proliferation Assay); type: cell-based; conditions: human; GS4.1 cells, cellular viability
Procedure: For cytotoxicity evaluation, GS4.1 cells were treated with compounds as described above and cellular viability was monitored using the Cell Titer 96 AQueous One Solution Cell Proliferation Assay (Promega). CC50 values were determined from the % cytotoxicity versus concentration data with Tecan Magellan software as described above.

genotype 1b replicon = experiment: Antiviral activity in a genotype 1b replicon assay; type: cell-based, HCV; conditions: Hepatitis C virus; genotype 1b replicon assay as described in Example 32; read-out: EC50
Procedure: General procedure: Huh-7 cells containing HCV Con1 subgenomic replicon (GS4.1 cells) were grown in Dulbecco's Modified Eagle Medium (DMEM) supplemented with 10% fetal bovine serum (FBS), 2 mM L-glutamine, 110 mg/L sodium pyruvate, 1× non-essential amino acids, 100 U/mL penicillin-streptomycin, and 0.5 mg/mL G418 (Invitrogen). For dose-response testing, the cells were seeded in 96-well plates at 7.5×10^3 cells/well in a volume of 50 μL, and incubated at 37° C./5% CO2. Three hours after plating, 50 μL of ten 2-fold serial dilutions of compounds (highest concentration, 75 μM) were added, and cell cultures were incubated at 37° C./5% CO2 in the presence of 0.5% DMSO. Alternatively, compounds were tested at a single concentration of 15 μM. In all cases, Huh-7 cells lacking the HCV replicon served as negative control. The cells were incubated in the presence of compounds for 72 hr after which they were monitored for expression of the NS4A protein by enzyme-linked immunosorbent assay (ELISA). For this, the plates were then fixed for 1 min with acetone/methanol (1:1, v/v), washed twice with phosphate-buffered saline (PBS), 0.1% Tween 20, blocked for 1 hr at room temperature with TNE buffer containing 10% FBS and then incubated for 2 hr at 37° C. with the anti-NS4A mouse monoclonal antibody A-236 (ViroGen) diluted in the same buffer. After washing three times with PBS, 0.1% Tween 20, the cells were incubated 1 hr at 37° C. with anti-mouse immunoglobulin G-peroxidase conjugate in TNE, 10% FBS. After washing as described above, the reaction was developed with O-phenylenediamine (Zymed). The reaction was stopped after 30 min with 2 NH2SO4, and absorbance was read at 492 nm using Sunrise Tecan spectrophotometer. EC50 values were determined from the % inhibition versus concentration data using a sigmoidal non-linear regression analysis based on four parameters with Tecan Magellan software. When screening at a single concentration, the results were expressed as % inhibition at 15 μM.
Compounds were tested in a genotype 1b replicon assay as described in Example 32 and the results are summarized in Table 6, wherein A represents a value smaller than 1 μM, and B represents a value between 1 μM to 10 μM, C represents a value between 10 μM to 75 μM and D represents a value greater than 75 μM.

[4] = tested on: HCV genotype 2a infectious virus; experiment: HCV genotype 2a infectious virus assay; type: cell-based, HCV (strain JFH-1; genotype 2a); conditions: Hepatitis C virus
Procedure: Compounds were tested in a HCV genotype 2a infectious virus assay and the results are summarized in Table 7, wherein A represents a value smaller than 1 μM, and B represents a value between 1 μM to 10 μM, C represents a value between 10 μM to 75 μM and D represents a value greater than 75 μM.
The HCV in vitro infection core ELISA assay measures the ability of a test compound to inhibit replication of an infectious HCV (strain JFH-1; genotype 2a) in cell culture. […] We have developed this model for determining the efficacy of antiviral compounds against an infectious virus in vitro using HCV producing cells (HPC), a proprietary Huh-7-derived cell sublineage capable of propagating the JFH-1 HCV virus. The readout of the assay is quantification of HCV core protein by ELISA 5 days post infection with JFH-1 virus and treatment with a test compound.
Ninety-six-well Corning Costar plates were seeded with HPC cells at a density of 3.0×10^3 cells per well in 50 μL of Huh-7 media. Compound stock solutions were made up freshly in Huh-7 media (DMEM (containing glucose, L-glutamine and sodium pyruvate), 10% FBS, 100 IU/mL penicillin, 100 μg/mL streptomycin, 2 mM GlutaMAX, 1% MEM non-essential amino acids) as 2× stock. Seven additional 3-fold drug dilutions were prepared from the 2× stocks in Huh-7 media. At least 4 hours after HPC cells were seeded, the media in the 96-well culture plates was aspirated and 50 μL of each drug dilution and 50 μL of JFH-1 HCV was added to each well.
At 16 hrs post treatment and infection, the virus inoculum was removed by aspiration. The cultures were treated at the same final concentrations of drug diluted to 1× in Huh-7 media to a final volume of 200 μL. Cells were incubated in the presence of drug for 4 additional days at 37° C./5% CO2.
Media was removed from the plates by aspiration. Cells were fixed with 250 μL 1:1 acetone:methanol for 90 seconds, washed once in PBS and then three times with 1×KPL wash solution. The assay plates were then blocked with 150 μL/well 10% FBS-TNE (50 mM Tris-HCl (pH 7.5; Sigma), 100 mM NaCl, 1 mM EDTA with 10% FBS) for 1 hr at room temperature. Cells were washed three times with 1×KPL wash solution and incubated with 100 μL/well anti-hepatitis C core mAb (1 mg/mL stock diluted 1:500 in 10% FBS-TNE) for 2 hours at 37° C. Cells were washed three times with 1×KPL wash solution and incubated with 100 μL/well HRP-goat anti-mouse antibody (diluted 1:2,500 in 10% FBS-TNE) for 1 hr at 37° C.
OPD solution was prepared using 1 OPD tablet+12 mL citrate/phosphate buffer (16 mM citric acid, 27 mM Na2HPO4) plus 5 μL 30% H2O2 per plate. Cells were washed three times with 1×KPL wash solution and developed with 100 μL/well OPD solution for 30 minutes in the dark at room temperature. The reaction was stopped with 100 μL/well of 2NH2SO4, and absorbance measured at A490 nm in a Victor^3 V 1420 multilabel counter (Perkin Elmer). The EC50 values for each compound were calculated from dose response curves from the resulting best-fit equations determined by Microsoft Excel and XLfit 4.1 software. The negative control for inhibition of virus replication was untreated HPC cells infected with the JFH-1 HCV virus strain. The negative ELISA control was untreated, uninfected HPC cells. The positive ELISA control was untreated HPC cells infected the JFH-1 HCV virus strain.

With `COc1ccc2c(O[C@H]3C[C@H]4C(=O)N(C)CCCC/C=C\[C@@H]5C[C@@]5(C(=O)NS(=O)(=O)C5CC5)NC(=O)N4C3)cc(-c3nc(C(C)C)cs3)nc2c1Cl` [Compound 62d, (Z)-(4R,6S,15S,17S)-[17-[8-chloro-7-methoxy-2-(4-isopropylthiazol-2-yl)quinolin-4-yloxy]-13-N-methyl-2,14-dioxo-1,3,13-triazatricyclo[13.3.0.0]octadec-7-en-4-yl]carbonyl(cyclopropyl)sulfonamide] the ring closure, isolated yield [1] was 63%, the EC50 [2] was under 1000 nM and the CC50 [3] was over 75000 nM. For the same compound, the EC50 (genotype 1b replicon) was under 1000 nM and the EC50 [4] was under 1000 nM.
